Active and inactive are the calls of the source. The calls are words filed in the database; no cut-off is given here.
Experiments:
[1] = target: Cholinesterase (Equus caballus, UniProt P81908)
Description: Inhibition of horse serum BuChE using butyrylthiocholine iodide as substrate preincubated for 20 mins by Ellman's method

[2] = test system: Radical scavenging activity
Description: Antioxidant activity of the compound assessed as DPPH radical scavenging activity after 60 mins

[3] = target: Acetylcholinesterase (Electrophorus electricus, UniProt O42275); assay: Inhibition of electric eel AChE using […] as substrate preincubated for 20 mins by Ellman's method
[4] = test system: HT-22; assay: Neuroprotective activity in mouse HT22 cells assessed as protection against H2O2-induced cell death at 3 to 30 uM preincubated for 30 mins prior to H2O2 challenge measured after 24 hrs by MTT assay; type: functional, cell-based
[5] = Antioxidant activity against Cu2+-mediated ROS formation in HEPES buffer at pH 7.4 assessed as compound-Cu2+ complex formation at 40 uM after 5 mins by UV-vis spectrophotometric analysis; type: functional
[6] = target: Acetylcholinesterase (Electrophorus electricus) (UniProt O42275); assay: Mixed type inhibition of electric eel AChE using […] as substrate by Lineweaver-Burk plot analysis
Acetylcholinesterase (Electrophorus electricus), sequence (O42275 24-633 limits assumed): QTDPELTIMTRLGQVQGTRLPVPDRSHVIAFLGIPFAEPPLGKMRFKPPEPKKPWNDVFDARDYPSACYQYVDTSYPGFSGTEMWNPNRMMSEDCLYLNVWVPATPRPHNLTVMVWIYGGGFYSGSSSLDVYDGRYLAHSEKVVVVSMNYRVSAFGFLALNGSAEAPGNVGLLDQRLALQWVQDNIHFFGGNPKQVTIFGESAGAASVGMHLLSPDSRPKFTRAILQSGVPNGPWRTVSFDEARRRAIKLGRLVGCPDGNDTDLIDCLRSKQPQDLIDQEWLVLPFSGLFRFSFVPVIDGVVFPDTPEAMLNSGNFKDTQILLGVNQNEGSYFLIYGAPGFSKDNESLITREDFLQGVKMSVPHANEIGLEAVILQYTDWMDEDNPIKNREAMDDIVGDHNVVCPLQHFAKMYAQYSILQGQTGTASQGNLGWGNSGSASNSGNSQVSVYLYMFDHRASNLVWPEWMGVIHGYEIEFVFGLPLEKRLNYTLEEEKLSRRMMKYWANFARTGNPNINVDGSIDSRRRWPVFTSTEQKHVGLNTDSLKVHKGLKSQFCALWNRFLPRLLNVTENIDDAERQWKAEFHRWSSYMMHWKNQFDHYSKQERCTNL

[7] = test system: HT-22; assay: […] against mouse HT22 cells at 100 uM after 30 mins by LDH release assay; type: cell-based; settings: ht-22, 0.5 h
[8] = test system: HT-22; assay: Cytotoxicity against mouse HT22 cells at 100 uM after 30 mins by LDH release assay; type: cell-based; settings: ht-22, 0.5 h
[9] = test system: HT-22; assay: Cytotoxicity against mouse HT22 cells assessed as cell viability at 30 uM after 24 hrs by MTT assay; type: cell-based; settings: ht-22, 24 h

Cholinesterase, sequence (P81908 whole entry): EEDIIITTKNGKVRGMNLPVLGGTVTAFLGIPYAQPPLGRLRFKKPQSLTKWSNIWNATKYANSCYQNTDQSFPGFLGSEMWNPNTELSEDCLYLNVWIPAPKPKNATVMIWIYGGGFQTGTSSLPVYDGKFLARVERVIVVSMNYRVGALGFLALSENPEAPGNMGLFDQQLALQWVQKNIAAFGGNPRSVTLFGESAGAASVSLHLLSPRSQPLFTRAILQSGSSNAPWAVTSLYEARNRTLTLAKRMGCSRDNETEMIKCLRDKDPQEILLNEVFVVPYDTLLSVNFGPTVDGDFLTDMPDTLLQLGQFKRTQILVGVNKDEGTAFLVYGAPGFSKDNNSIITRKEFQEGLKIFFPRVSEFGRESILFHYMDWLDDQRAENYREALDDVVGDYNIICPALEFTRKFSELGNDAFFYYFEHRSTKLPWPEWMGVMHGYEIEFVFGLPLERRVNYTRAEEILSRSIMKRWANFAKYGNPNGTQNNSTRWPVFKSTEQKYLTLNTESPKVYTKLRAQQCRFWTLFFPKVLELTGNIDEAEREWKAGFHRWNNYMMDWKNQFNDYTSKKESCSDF
Acetylcholinesterase, sequence (O42275 whole entry): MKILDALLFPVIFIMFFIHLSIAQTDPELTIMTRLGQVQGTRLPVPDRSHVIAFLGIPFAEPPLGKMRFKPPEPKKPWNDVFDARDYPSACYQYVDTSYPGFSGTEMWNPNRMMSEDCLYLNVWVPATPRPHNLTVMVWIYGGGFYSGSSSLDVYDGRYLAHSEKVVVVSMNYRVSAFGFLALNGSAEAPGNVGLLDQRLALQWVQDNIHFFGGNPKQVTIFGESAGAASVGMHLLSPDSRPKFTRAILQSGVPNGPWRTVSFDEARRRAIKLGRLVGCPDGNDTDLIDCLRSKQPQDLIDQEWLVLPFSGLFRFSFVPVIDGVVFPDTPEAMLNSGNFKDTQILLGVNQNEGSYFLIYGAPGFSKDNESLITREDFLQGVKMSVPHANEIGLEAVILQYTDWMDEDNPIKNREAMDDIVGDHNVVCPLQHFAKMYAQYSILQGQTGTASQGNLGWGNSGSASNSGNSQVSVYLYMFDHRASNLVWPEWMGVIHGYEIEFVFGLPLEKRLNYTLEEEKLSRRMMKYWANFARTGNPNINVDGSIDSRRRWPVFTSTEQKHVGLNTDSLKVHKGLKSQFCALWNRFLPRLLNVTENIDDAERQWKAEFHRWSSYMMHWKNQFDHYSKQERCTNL

O=C(/C=C/c1ccc(O)c(O)c1)NCCNc1c2c(nc3cc(Cl)ccc13)CCCC2
IC50 [1]: 5.5 µM
IC50 [2]: 9.7 µM
IC50 [3]: 1 µM
Activity [4]: Active

O=C(/C=C/c1ccc(O)c(O)c1)NCCCNc1c2c(nc3ccccc13)CCCC2
IC50 [1]: 0.0837 µM
IC50 [2]: 11.1 µM
IC50 [3]: 0.0088 µM

O=C(/C=C/c1ccc(O)c(O)c1)NCCNc1c2c(nc3ccccc13)CCCC2
IC50 [1]: 2.3 µM
IC50 [2]: 14.1 µM
IC50 [3]: 1.8 µM

O=C(/C=C/c1ccc(O)c(O)c1)NCCCNc1c2c(nc3cc(Cl)ccc13)CCCC2
Activity [5]: Active
inhibition [6]: Active
IC50 [1]: 29.5 µM
IC50 [2]: 4.8 µM
IC50 [3]: 0.3 µM
Activity [7]: Toxic
Activity [8]: Non-toxic
Activity [4]: Active
Activity [9]: Toxic

O=C(/C=C/c1ccc(O)c(O)c1)NCCCCCCNc1c2c(nc3ccccc13)CCCC2
IC50 [1]: 3.9 µM
IC50 [2]: 10.4 µM
IC50 [3]: 1.9 µM

O=C(/C=C/c1ccc(O)c(O)c1)NCCCCCCNc1c2c(nc3cc(Cl)ccc13)CCCC2
IC50 [1]: 3.8 µM
IC50 [2]: 4.7 µM
IC50 [3]: 6.3 µM
Activity [8]: Non-toxic
Activity [4]: Active
Activity [9]: Toxic
